Where two headings read alike, the source gives them in different places.
Assays:
[1] = test system: neutrophil gelatinase-associated lipocalin (NGAL); test: Kidney NGAL immunohistochemistry in fluvastatin-fed mice given mevalonate and lipopolysaccharide (Example 6); format: in vivo, mouse; details: mevalonate 30 mg/kg i.p. 4 days
Protocol: (§1) In order to examine whether administration of an isoprenoid-based compound reduces statin-induced adverse effects even in vivo, 100 mg of statin (fluvastatin) was added to 1 kg of feed, and the mixture was fed to 8-week-old C57BL6/J mice for 14 days. Subsequently, mevalonate was administered intraperitoneally to the mice at a dose of 30 mg per kg of mouse body weight for 4 consecutive days, and then lipopolysaccharide (SIGMA) was administered intraperitoneally to mice at a lipopolysaccharide dose of 12 mg per kg of mouse body weight, thereby producing oxysterol in the mouse body. 72 hours after administration of the lipopolysaccharide, the mice were euthanized, and then kidney tissue was extracted by performing cardiac perfusion with 4% paraformaldehyde in DPBS (Dulbecco's phosphate-buffered saline). The extracted kidney tissue was subjected to H & E (Hematoxylin & Eosin) staining, PAS (periodic acid-Schiff) staining and immunohistochemistry of neutrophil gelatinase-associated lipocalin (NGAL) that is an early diagnostic marker of acute renal failure, thereby determining whether acute kidney damage and acute renal failure would occur. In addition, the concentrations of total cholesterol, high-density lipoprotein (HDL) and low-density lipoprotein (LDL) were measured.

[2] = test system: C57BL6/J mice; format: in vivo, mouse; details: for therapeutic effect on kidney damage (H & E, PAS): mevalonate 30 mg/kg i.p. 4 days
Protocol: as §1

[3] = Total cholesterol, HDL and LDL concentrations in mice (Example 6); format: in vivo, mouse; details: statin, oxysterol and mevalonate all administered
Protocol: as §1

[4] = test system: human kidney tubule cell line HK-2; test: LDH assay of cell death in HK-2 cells treated with statin and/or oxysterol; format: cell-based; details: 1 μM zaragozic acid with 10 μg/mL 25-hydroxycholesterol
Protocol: To analyze the relationship between statins and oxysterols, the human kidney tubule cell line HK-2 (human kidney-2 cell line; ATCC CRL-2190™) was seeded into a 24-well plate at a density of 1×10^5 per well. […] Subsequently, the cells were cultured in an incubator at 37° C. under 5% CO2 for 72 hours, and then the degree of cell death in each well was analyzed using an LDH assay kit (Takara, Cat #. MK401).
In order to examine whether the same results appear even in the presence of various types of oxysteols, an experiment was performed in the same manner as Example 1.1. As statin, 5 μM of atorvastatin was used, and as oxysterols, 0.1 μg/mL of 25-hydroxycholesterol, 7-ketocholesterol, cholesterol 5,6-epoxide, 24-hydroxycholesterol and 27-hydroxycholesterol were used.
In order to examine whether isoprenoid-based compounds can reduce adverse effects which are induced by co-administration of oxysterol and statin, the cell line was treated with oxysterol (0.1 μg/mL of 25-hydroxycholestyerol) and statin (5 μM of atorvastatin) in the same manner as Example 1.1, and treated with 10 μM of farnesyl pyrophosphate, 200 μM of mevalonate or 10 μM of geranylgeranyl pyrophosphate, which is an isoprenoid-based compound.

Row | SMILES | expression of NGAL ([1]; oxysterol generation induced after administration of statin) | therapeutic effect on expression of NGAL ([1]; oxysterol generation induced without statin) | therapeutic effect on kidney damage (H & E, PAS) ([2]; group with statin and oxysterol co-administered) | therapeutic effect on kidney damage (H & E, PAS) ([2]; kidney damage caused by oxysterol formation, no statin) | damage to kidney tissue ([2]; statin, oxysterol and mevalonate all administered) | concentration of low-density lipoprotein [3] | concentration of total cholesterol [3] | adverse effects / viability of the cells [4]
1 | CC(O)(CCO)CC(=O)O (centres unmarked) [mevalonate] | the expression of NGAL significantly decreased | showed no significant therapeutic effect | exhibited a significant effect | showed no therapeutic effect | kidney tissue was not damaged | decreased | decreased | 
2 | C=C(CC[C@]12O[C@H](C(=O)O)[C@@](O)(C(=O)O)[C@](C(=O)O)(O1)[C@H](OC(=O)/C=C/[C@@H](C)C[C@@H](C)CC)[C@H]2O)[C@@H](OC(C)=O)[C@H](C)Cc1ccccc1 [zaragozic acid] |  |  |  |  |  |  |  | the adverse effects were reduced to some degrees, and thus the viability of the cells increased
